Measurements reported in US7868046B2, “(2R)-2-[(4-sulfonyl) aminophenyl] propanamides and pharmaceutical compositions containing them” (Dompe' Pha.r.ma S.p.A., priority 2006, dated 2011).

Assays:
human PMNs [1] = assay: CXCL8 induced human PMN chemotaxis inhibition; type: cell-based; settings: hPMN chemotaxis, compound at 10^−7 M; for inhibition at 0.1 µM: Homo sapiens
Method: (§1) The compounds of the invention of formula (I) were evaluated in vitro for their ability to inhibit chemotaxis of polymorphonucleate leukocytes (hereinafter referred to as PMNs) and monocytes induced by the fractions of IL-8 and GRO-α. For this purpose, in order to isolate the PMNs from heparinized human blood, taken from healthy adult volunteers, mononucleates were removed by means of sedimentation on dextran (according to the procedure disclosed by W. J. Ming et al., J. Immunol., 138, 1469, 1987) and red blood cells by a hypotonic solution. The cell vitality was calculated by exclusion with Trypan blue, whilst the ratio of the circulating polymorphonucleates was estimated on the cytocentrifugate after staining with Diff Quick.
In the CXCL8 induced chemotaxis assay human recombinant CXCL8 (Pepro Tech) was used as stimulating agents in the chemotaxis experiments: the lyophilized protein was dissolved in a volume of HBSS containing 0.2% bovin serum albumin (BSA) so thus to obtain a stock solution having a concentration of 10^−5 M to be diluted in HBSS to a concentration of 10^−8 M, for the chemotaxis assays.
(§2) In the chemotaxis experiments, the PMNs were incubated with the compounds of the invention of formula (I) for 15′ at 37° C. in an atmosphere containing 5% CO2.
(§3) During the chemotaxis assay [W. Falket et al., J. Immunol. Methods, 33, 239, 1980] PVP-free filters with a porosity of 5 μm and microchambers suitable for replication were used.
(§4) The compounds of the invention in formula (I) were evaluated at a concentration ranging between 10^−6 and 10^−10 M; for this purpose they were added, at the same concentration, both to the lower pores and the upper pores of the microchamber. Evaluation of the ability of the compounds of the invention of formula (I) to inhibit the chemotaxis of human monocytes was carried out according to a disclosed method [Van Damme J. et al., Eur. J. Immunol., 19, 2367, 1989].

human PMNs [2] = assay: CXCL1 (GRO-α) induced human PMN chemotaxis inhibition; type: cell-based; settings: hPMN chemotaxis, compound at 10^−8 M; for inhibition at 0.01 µM: Homo sapiens
Method: as §1
GRO-α induced chemotaxis inhibition was evaluated in an analogous assay.
as §2, §3, §4

melting point [°C] | Structure (SMILES) | inhibition at 0.1 µM (human PMNs [1]) [%] | inhibition at 0.01 µM (human PMNs [2]) [%] | CXCL8 (% inhibition at 10^−7 M) (human PMNs [1]) [%] | CXCL1 (% inhibition at 10^−8 M) (human PMNs [2]) [%]
 | C[C@@H](C(N)=O)c1ccc(NS(=O)(=O)C(F)(F)F)cc1 [Compound 13, (2R)-2-(4-{[(trifluoromethyl)sulfonyl]amino}phenyl)propanamide] | 24 ± 7 | 75 ± 11 |  | 
 | C[C@@H](C(N)=O)c1ccc(NS(=O)(=O)C2CCCC2)cc1 [Compound 12, (2R)-2-{4-[(cyclopentylsulfonyl)amino]phenyl}propanamide] | 21 ± 10 | 67 ± 7 |  | 
125 to 127 | CC(C)S(=O)(=O)Nc1ccc([C@@H](C)C(N)=O)cc1 [Compound 1, (2R)-2-{4-[(Isopropylsulfonyl]amino}phenyl)propanamide] | 7 ± 18 | 67 ± 7 |  | 
118 to 120 | COc1ccc(S(=O)(=O)Nc2ccc([C@@H](C)C(N)=O)cc2)cc1 [Compound 7, (2R)-2-{4-{[(4-methoxylphenyl)sulfonyl]amino}phenyl)propanamide] | 9 ± 7 | 71 ± 11 |  | 
 | C[C@@H](C(N)=O)c1ccc(NS(=O)(=O)c2c(Cl)cccc2Cl)cc1 [Compound 3, (2R)-2-{4-{[(2,6-dichlorophenyl)sulfonyl]amino}phenyl)propanamide] | 14 ± 5 | 39 ± 10 |  | 
 | C[C@@H](C(=O)NC1CC1)c1ccc(NS(=O)(=O)c2ccccc2Cl)cc1 [Compound 19, (2R)-2-{4-{[(2-chlorophenyl)sulfonyl]amino}phenyl)-N-cyclopropylpropanamide] | 19 ± 4 | 60 ± 8 |  | 
152 to 153 | C[C@@H](C(N)=O)c1ccc(NS(=O)(=O)c2ccccc2)cc1 [Compound 5, (2R)-2-{4-[(phenylsulfonyl)amino]phenyl}propanamide] | 15 ± 10 | 44 ± 9 |  | 
 | CNC(=O)[C@H](C)c1ccc(NS(=O)(=O)C(C)C)cc1 [Compound 14, (2R)-2-{4-[(isopropylsulfonyl]amino}phenyl)-N-methylpropanamide] | 8 ± 9 | 64 ± 8 |  | 
58 to 60 | C[C@@H](C(N)=O)c1ccc(NS(=O)(=O)c2cccs2)cc1 [Compound 11, (2R)-2-{4-[(thien-2ylsulfonyl)amino]phenyl}propanamide] | 17 ± 4 | 50 ± 2 |  | 
 | CC(C)S(=O)(=O)Nc1ccc([C@@H](C)C(=O)Nc2nc(C(F)(F)F)cs2)cc1 [Compound 16, (2R)-2-{4-[(isopropylsulfonyl]amino}phenyl)-N-[4-(trifluoromethyl)-1,3-thiazol-2-yl]propanamide] | 11 ± 7 | 49 ± 10 |  | 
 | C[C@@H](C(=O)NCCOCCO)c1ccc(NS(=O)(=O)c2ccccc2Cl)cc1 [Compound 18, (2R)-2-{4-{[(2-chlorophenyl)sulfonyl]amino}phenyl)-N-[2-(2-hydroxyethoxy)ethyl]propanamide] | 6 ± 7 | 59 ± 5 |  | 
 | C[C@@H](C(N)=O)c1ccc(NS(=O)(=O)c2ccccc2Cl)cc1 [Compound 2, (2R)-2-{4-{[(2-chlorophenyl)sulfonyl]amino}phenyl)propanamide] | 19 ± 5 | 41 ± 7 |  | 
 | C[C@@H](C(N)=O)c1ccc(NS(C)(=O)=O)cc1 [Compound 4, (2R)-2-{4-[(methylsulfonyl)amino]phenyl}propanamide] | 10 ± 7 | 75 ± 7 |  | 
178 to 180 | C[C@@H](C(N)=O)c1ccc(NS(=O)(=O)c2ccc(C(F)(F)F)cc2)cc1 [Compound 10, (2R)-2-(4-{[(4-(trifluoromethyl)phenyl]sulfonyl}amino)phenyl]propanamide] | 15 ± 7 | 69 ± 5 |  | 
150 to 153 | C[C@@H](C(N)=O)c1ccc(NS(=O)(=O)c2ccc(Cl)cc2)cc1 [Compound 9, (2R)-2-(4-{[(4-chlorophenyl)sulfonyl]amino}phenyl)propanamide] | 20 ± 4 | 53 ± 12 |  | 
68 to 70 | C[C@@H](C(N)=O)c1ccc(NS(=O)(=O)Cc2ccccc2)cc1 [Compound 8, (2R)-2-(4-[(benzylsulfonyl]amino}phenyl)propanamide] | 14 ± 9 | 58 ± 6 |  | 
138 to 140 | Cc1ccc(S(=O)(=O)Nc2ccc([C@@H](C)C(N)=O)cc2)cc1 [Compound 6, (2R)-2-{4-{[(4-methylphenyl)sulfonyl]amino}phenyl)propanamide] | 12 ± 10 | 65 ± 4 |  | 
 | C[C@@H](C(=O)Nc1nc(C(F)(F)F)cs1)c1ccc(NS(=O)(=O)c2ccccc2Cl)cc1 [Compound 17, (2R)-2-{4-{[(2-chlorophenyl)sulfonyl]amino}phenyl)-N-[4-(trifluoromethyl)-1,3-thiazol-2-yl]propanamide] | 14 ± 11 | 40 ± 12 |  | 
 | CC(C)S(=O)(=O)Nc1ccc([C@@H](C)C(=O)N[C@@H](C)C(N)=O)cc1 [Compound 15, (2R)—N-[(1S)-2-amino-1-methyl-2-oxoethyl]-2-{4-[(isopropylsulfonyl]amino}phenyl) propanamide] |  |  | 10 ± 8 | 58 ± 2
